Data reported in article PMC6562610, “Inhibition of Hedgehog Signaling in Fibroblasts, Pancreatic, and Lung Tumor Cells by Oxy186, an Oxysterol Analogue with Drug-Like Properties” (Cells, 2019).

Assays:
[1] = tested on: Gli1 transcriptional activity in NIH3T3-E1 cells; assay: Gli responsive luciferase reporter trans-activated by exogenous Gli1; assay type: cell-based, mouse; details: 72 h
Experimental: NIH3T3-E1 and Sufu^−/− cells cultured in 24-well plates at 90% confluence were transiently transfected with 0.1 µg of Gli response-element reporter (pGL3b-8xGli-Luciferase) plasmid, and 10 ng of pTK-Renilla-Luciferase plasmid with or without co-transfection with 10 ng of Gli1 overexpression vector, pSRα-Gli1, as previously described using Lipofectamine LTX Plus transfection reagent (Invitrogen). Twenty-four h after transfection, cells were treated with test agents for 72 h. Then the firefly and Renilla luciferase activities were measured using a dual luciferase kit (Promega, Madison, WI, USA) and a GloMax-96 Microplate Luminometer. The firefly luciferase activities were normalized to the Renilla luciferase activities. Data are reported as the mean of triplicate determinations ± SD.
Figure 5 Oxy186 acts downstream of Smo. (a) Sufu^−/− mouse embryonic fibroblast (MEF) cells were treated with DMEM containing 10% FBS in the presence or absence of Oxy186 (10 µM). After 72 h, RNA was extracted and analyzed by Q-RT-PCR for the expression of Hh target genes Gli1, Ptch1, and Hip, normalized to Oaz1 expression. […] Luciferase activity was measured and normalized to the Renilla luciferase activity. […]

[2] = tested on: Gli1 expression in PANC-1 cells; assay: Inhibition of baseline Gli1 expression in PANC-1 cells, Q-RT-PCR; assay type: cell-based, human; details: 10 µM, 48 h
From the text: NIH3T3-E1 fibroblasts were obtained from ATCC (Manassas, VA) and cultured, as previously described. CAPAN-1 and PANC-1 human pancreatic cancer cells were obtained from ATCC and cultured in Dulbecco’s Modified Eagle Medium (DMEM) containing 10% heat-inactivated fetal bovine serum (FBS) (Hyclone Laboratories, Logan, UT, USA) and antibiotics, as previously described. The human lung cancer cell lines A549 and H2030 were obtained from ATCC and cultured in RPMI-1640 containing 10% FBS. The human hepatoma cell line HepG2 was obtained from ATCC and cultured in DMEM containing 10% FBS. Mouse embryonic fibroblasts (MEFs) from suppressor of fused (Sufu) null mice (Sufu^−/−) were provided by Dr. Philip Beachy of Stanford University and cultured in DMEM containing 10% FBS. Gant61, SB431542 and vismodegib (GDC0449) were obtained from Cayman Chemical, HPI-1 was obtained from Abcam. For experiments, cells were treated in a medium containing 5% FBS.
Total RNA was extracted with the RNeasy Plus Mini Kit from Qiagen, according to the manufacturer’s instructions. One microgram of RNA was reverse-transcribed using an iScript Reverse Transcription Supermix from Bio-Rad, to make single-stranded cDNA. The cDNAs were then mixed with Qi SYBR Green Supermix (Bio-Rad, Hercules, CA, USA) for quantitative RT-PCR assay using a Bio-Rad I-cycler IQ quantitative thermocycler. All PCR samples were prepared in triplicate wells in a 96-well plate. […] Fold changes in gene expression were calculated using the ΔΔCt method. […]
Figure 4 Inhibition of Gli and Shh expression in (a) PDAC (PANC-1) and (b,c) human lung cancer cells (A549 and H2030, respectively) by Oxy186. Cells were treated with the compounds as indicated in DMEM or RPMI 1640 containing 5% FBS for (a) 48 or (b,c) 72 hours, then RNA was extracted and analyzed by Q-RT-PCR for the expression of Gli1 and normalized to GAPDH expression. (d) CAPAN-1 cells were treated with the compounds, as indicated, in DMEM containing 5% FBS for 72 h, then RNA was extracted and analyzed by Q-RT-PCR for the expression of Shh and normalized to GAPDH expression. […]

SMILES: C[C@]12CC[C@H](O)C[C@@H]1CC[C@@H]1[C@@H]2CC[C@@]2(C)[C@H]1CC[C@@H]2[C@](C)(O)CCc1ccc(F)cc1 [Oxy186, (3S,5S,8R,9S,10S,13S,14S,17S)-17-((R)-4-(4-fluorophenyl)-2-hydroxybutan-2-yl)-10,13-dimethylhexadecahydro-1H-cyclopenta[a]phenanthren-3-ol]
- Inhibition of Gli responsive luciferase reporter trans-activated by over expressed exogenous Gli1 [1]: significantly inhibited
- Inhibition of high baseline expression of Gli1 [2]: significantly inhibited
